The text below walks through data of patent publication US20230118688A1, “1H-PYRAZOLO[4,3-d]PYRIMIDINE COMPOUNDS AS TOLL-LIKE RECEPTOR 7 (TLR7) AGONISTS” (BRISTOL-MYERS SQUIBB COMPANY, priority 2020, published 2023).

One experiment has as its target T1, human TLR7 (Homo sapiens, UniProt Q9NYK1).
T1 construct: host or cells: HEK-Blue TLR7 cells (engineered human embryonic kidney cells)
T1 sequence (Q9NYK1 27-1049): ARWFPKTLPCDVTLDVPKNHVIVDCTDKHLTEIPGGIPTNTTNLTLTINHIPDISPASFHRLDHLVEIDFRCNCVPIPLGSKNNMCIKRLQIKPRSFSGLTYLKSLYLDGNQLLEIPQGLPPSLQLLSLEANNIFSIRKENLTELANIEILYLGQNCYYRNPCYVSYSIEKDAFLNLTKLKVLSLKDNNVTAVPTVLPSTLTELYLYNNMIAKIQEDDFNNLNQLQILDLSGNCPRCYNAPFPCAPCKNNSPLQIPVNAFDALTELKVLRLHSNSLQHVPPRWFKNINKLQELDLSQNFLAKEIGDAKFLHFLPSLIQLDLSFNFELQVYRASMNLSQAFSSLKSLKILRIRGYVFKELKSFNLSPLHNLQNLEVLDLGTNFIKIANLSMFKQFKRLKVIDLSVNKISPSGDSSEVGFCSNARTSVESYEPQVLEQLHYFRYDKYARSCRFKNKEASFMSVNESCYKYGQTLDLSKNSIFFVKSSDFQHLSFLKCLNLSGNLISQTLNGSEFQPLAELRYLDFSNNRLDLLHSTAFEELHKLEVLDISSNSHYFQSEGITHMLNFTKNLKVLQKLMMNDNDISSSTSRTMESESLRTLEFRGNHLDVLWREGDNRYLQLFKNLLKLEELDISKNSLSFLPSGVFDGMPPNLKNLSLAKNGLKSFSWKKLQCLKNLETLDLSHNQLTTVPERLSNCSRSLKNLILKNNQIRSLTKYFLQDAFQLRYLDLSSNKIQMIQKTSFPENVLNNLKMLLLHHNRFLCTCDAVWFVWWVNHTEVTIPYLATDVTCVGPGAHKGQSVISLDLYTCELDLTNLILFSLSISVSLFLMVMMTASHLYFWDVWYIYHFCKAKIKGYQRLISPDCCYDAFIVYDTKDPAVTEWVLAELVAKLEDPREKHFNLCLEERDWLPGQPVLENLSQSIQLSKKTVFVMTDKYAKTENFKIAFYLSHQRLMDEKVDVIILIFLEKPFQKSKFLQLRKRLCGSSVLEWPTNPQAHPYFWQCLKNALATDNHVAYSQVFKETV
The experiment is described as follows: Human TLR7 agonist activity reporter assay (HEK-Blue TLR7 cells, SEAP reporter). In kind it is cell-based. The settings on record: 18 h treatment, average where assay repeated, Table A1, read-out: hTLR7 Agonism EC50. As for the experimental part:
This procedure describes a method for assaying human TLR7 (hTLR7) agonist activity of the compounds disclosed in this specification.
HEK-Blue™ TLR7 cells were added to each well of a 384-well tissue-culture plate (15,000 cells per well) and incubated 16-18 h at 37° C., 5% CO2. Compounds (100 nl) were dispensed into wells containing the HEK-Blue™ TLR cells and the treated cells were incubated at 37° C., 5% CO2. After 18 h treatment ten microliters of freshly-prepared Quanti-Blue™ reagent (Invivogen) was added to each well, incubated for 30 min (37° C., 5% CO2) and SEAP levels measured using an Envision plate reader (OD=620 nm). The half maximal effective concentration values (EC50; compound concentration which induced a response halfway between the assay baseline and maximum) were calculated.

The next experiment relates to CD69. Briefly: Induction of CD69 in human whole blood. In kind it is cell-based. The note with it: 17 h, CD69 surface staining, 100% set to 1 uM resiquimod, average where assay repeated, Table A1, read-out: hWB CD69 EC50. As for the experimental part: The induction of Type I interferon (IFN) MX-1 genes and the B-cell activation marker CD69 are downstream events that occur upon activation of the TLR7 pathway. The following is a human whole blood assay that measures their induction in response to a TLR7 agonist.
Heparinized human whole blood was harvested from human subjects and treated with test TLR7 agonist compounds at 1 mM. The blood was diluted with RPMI 1640 media and Echo was used to predot 10 nL per well giving a final concentration of 1 uM (10 nL in 10 uL of blood). After mixing on a shaker for 30 sec, the plates were covered and placed in a 37° C. chamber for o/n=17 hrs. Fixing/lysis buffer was prepared (5×->1× in H2O, warm at 37° C.; Cat #BD 558049) and kept the perm buffer (on ice) for later use.
For surface markers staining (CD69): prepared surface Abs: 0.045 ul hCD14-FITC (ThermoFisher Cat #MHCD1401)+0.6 ul hCD19-ef450 (ThermoFisher Cat #48-0198-42)+1.5 ul hCD69-PE (cat #BD555531)+0.855 ul FACS buffer. Added 3 ul/well, spin1000 rpm for 1 min and mixed on shaker for 30 sec, put on ice for 30 mins. Stop stimulation after 30 minutes with 70 uL of prewarmed 1× fix/lysis buffer and use Feliex mate to resuspend (15 times, change tips for each plate) and incubate at 37C for 10 minutes.
Centrifuge at 2000 rpm for 5 minutes aspirate with HCS plate washer, mix on shaker for 30 sec and then wash with 70 uL in dPBS and pelleted 2×s (2000 rpm for 5 min) and 50 ul wash in FACS buffer pelleted 1×s(2000 rpm for 5 min). Mix on shaker for 30 sec. For Intracellular markers staining (MX-1): Add 50 ul of BD Perm buffer III and mix on shaker for 30 sec. Incubate on ice for 30 minutes (in the dark). Wash with 50 uL of FACS buffer 2× (spin @2300 rpm×5 min after perm) followed by mixing on shaker for 30 sec. Resuspended in 20 ul of FACS buffer containing MX1 antibody ( ) (4812)-Alexa 647: Novus Biologicals #NBP2-43704AF647) 20 ul FACS bf+0.8 ul hlgG+0.04 ul MX-1. Spin 1000 rpm for 1 min, mix on shaker for 30se and the samples were incubated at RT in the dark for 45 minutes followed by washing 2×FACS buffer (spin @2300 rpm×5 min after perm). Resuspend 20 ul (35 uL total per well) of FACS buffer and cover with foil and place in 4° C. to read the following day. Plates were read on iQuePlus. The results were loaded into toolset and IC50 curves are generated in curve master. The y-axis 100% is set to 1 uM of resiquimod.

Take “4-[3-({5-amino-7-[({spiro- [2.3]hexan-5-yl}methyl)- amino]-1H-pyrazolo[4,3- d]pyrimidin-1-yl}methyl)-4- methoxybenzoyl]piperazin- 2-one [Compound 153]”: the EC50 (as a rule, the concentration at which the effect is half-maximal) on human TLR7 is 2.25 µM; in the experiment on CD69, 0.485 µM.
Taken in the same sequence, the figures for `CCCCNc1nc(N)nc2cnn(Cc3cc(CN4CC(OC)C4)ccc3OC)c12` [Compound 105, N7-butyl-1-({2-methoxy-5-[(3-methoxyazetidin-1-yl)methyl]phenyl}methyl)-1H-pyrazolo[4,3-d]pyrimidine-5,7-diamine] were 0.124 µM and 0.0909 µM.
Taken in the same sequence, the figures for `CCCCNc1nc(N)nc2cnn(Cc3cc(CN)ccc3OC)c12` [Compound 114, 1-{[5-(aminomethyl)-2-methoxyphenyl]methyl}-N7-butyl-1H-pyrazolo[4,3-d]pyrimidine-5,7-diamine] were 0.234 µM and 0.0067 µM.
For `CCCCNc1nc(N)nc2cnn(Cc3cc(CNC4CC(O)C4)ccc3OC)c12` (stereo not drawn) [Compound 116, (1r,3r)-3-{[(3-{[5-amino-7-(butylamino)-1H-pyrazolo-[4,3-d]pyrimidin-1-yl]methyl}-4-methoxyphenyl)-methyl]amino}cyclobutan-1-ol] the same measures were 0.335 µM and 0.205 µM.
For `CCCCNc1nc(N)nc2cnn(Cc3cc(CNC4CC45CC5)ccc3OC)c12` (stereo not drawn) [Compound 117, N7-butyl-1-({2-methoxy-5-[({spiro[2.2]pentan-1-yl}amino)methyl]phenyl}methyl)-1H-pyrazolo[4,3-d]pyrimidine-5,7-diamine], the values for the EC50 on human TLR7 and in the experiment with CD69 were 0.562 µM and 0.156 µM, respectively.
For `CCCCNc1nc(N)nc2cnn(Cc3cc(CN4CC5CC4CN5)ccc3OC)c12` (stereo not drawn) [Compound 118, N7-butyl-1-{[5-({2,5-diaza-bicyclo[2.2.1]heptan-2-yl}methyl)-2-methoxy-phenyl]methyl}-1H-pyrazolo[4,3-d]pyrimidine-5,7-diamine] the same measures were 0.423 µM and 0.335 µM.
For `CCCCNc1nc(N)nc2cnn(Cc3cc(CNC4(C)CCOCC4)ccc3OC)c12` [Compound 119, N7-butyl-1-[(2-methoxy-5-{[(4-methyloxan-4-yl)amino]methyl}phenyl)methyl]-1H-pyrazolo[4,3-d]pyrimidine-5,7-diamine] the same measures were 0.529 µM and 0.227 µM.
Taken in the same sequence, the figures for `CCCCNc1nc(N)nc2cnn(Cc3cc(CNC4CCCC4)ccc3OC)c12` [Compound 120] were 0.548 µM and 0.288 µM.
As for `CCCCNc1nc(N)nc2cnn(Cc3cc(CNC4CC4)ccc3OC)c12` [Compound 121], the results for the EC50 on human TLR7 and in the experiment with CD69 were 0.116 µM and 0.0569 µM, respectively.
`CCCCNc1nc(N)nc2cnn(Cc3cc(CNC4COC4)ccc3OC)c12` [Compound 122, N7-butyl-1-[(2-methoxy-5-{[(oxetan-3-yl)amino]-methyl}phenyl)methyl]-1H-pyrazolo[4,3-d]pyrimidine-5,7-diamine]: the values for the EC50 on human TLR7 and with CD69 were 0.548 µM and 0.225 µM, respectively.
For `CCCCNc1nc(N)nc2cnn(Cc3cc(CN4CC5COCC5C4)ccc3OC)c12` (stereo not drawn) [Compound 123, N7-butyl-1-{[5-({hexa-hydro-1H-furo[3,4-c]pyrrol-5-yl}methyl)-2-methoxyphenyl]methyl}-1H-pyrazolo[4,3-d] pyrimidine-5,7-diamine] the same measures were 0.158 µM and 0.0898 µM.
With `CCCCNc1nc(N)nc2cnn(Cc3cc(CN4CC5(COC5)C4)ccc3OC)c12` [Compound 124, N7-butyl-1-{[2-methoxy-5-({2-oxa-6-azaspiro-[3.3]heptan-6-yl}-methyl)phenyl]methyl}-1H-pyrazolo[4,3-d]pyrimidine-5,7-diamine], the EC50 on human TLR7 turned out to be 0.19 µM; with CD69, 0.0863 µM.
Taken in the same sequence, the figures for `CCCCNc1nc(N)nc2cnn(Cc3cc(CN4CC5(C4)CN(C(=O)C4CCC4)C5)ccc3OC)c12` [Compound 125, N7-butyl-1-{[5-({6-cyclobutanecarbonyl-2,6-diazaspiro[3.3]heptan-2-yl}methyl)-2-methoxy-phenyl]methyl}-1H-pyrazolo[4,3-d]pyrimidine-5,7-diamine] were 0.191 µM and 0.369 µM.
For `CCCCNc1nc(N)nc2cnn(Cc3cc(CN(C)CCNC)ccc3OC)c12` [Compound 126, N7-butyl-1-{[2-methoxy-5-({methyl[2-(methylamino)-ethyl]amino}methyl)phenyl]methyl}-1H-pyrazolo[4,3-d]pyrimidine-5,7-diamine] the same measures were 0.158 µM and 0.0989 µM.
Taken in the same sequence, the figures for `CCCCNc1nc(N)nc2cnn(Cc3cc(CN4CCN(CCO)CC4)ccc3OC)c12` [Compound 127, 2-{4-[(3-{[5-amino-7-(butylamino)-1H-- pyrazolo[4,3-d]pyrimidin-1-yl]methyl}-4-methoxy-phenyl)methyl]piperazin-1-yl}ethan-1-ol] were 0.107 µM and 0.0475 µM.
As to `CCCCNc1nc(N)nc2cnn(Cc3cc(CN(C)C(=O)CCN(C)C)ccc3OC)c12` [Compound 128, N-[(3-{[5-amino-7-(butyl-amino)-1H-pyrazolo[4,3-d]pyrimidin-1-yl]methyl}-4-methoxyphenyl)methyl]-3-(dimethylamino)-N-methylpropanamide], the figures for the EC50 on human TLR7 and in the experiment with CD69 were 0.0562 µM and 0.0126 µM, respectively.
Taken in the same sequence, the figures for `CCCCNc1nc(N)nc2cnn(Cc3cc(CNCC4(N)CCC4)ccc3OC)c12` [Compound 129, 1-{[5-({[(1-aminocyclo-butyl)methyl]amino}methyl)-2-methoxyphenyl]methyl}-N7-butyl-1H-pyrazolo[4,3-d]pyrimidine-5,7-diamine] were 0.587 µM and 0.0609 µM.
Taken in the same sequence, the figures for `CCCCNc1nc(N)nc2cnn(Cc3cc(CN4CCN(C5CCC5)CC4)ccc3OC)c12` [Compound 130, N7-butyl-1-({5-[(4-cyclobutylpiperazin-1-yl)methyl]-2-methoxy-phenyl}methyl)-1H-pyrazolo[4,3-d]pyrimidine-5,7-diamine] were 0.0499 µM and 0.516 µM.
